Results from patent US9862711B2, “Pyrazine derivatives as phosphatidylinositol 3-kinase inhibitors” (NOVARTIS AG, priority 2014, dated 2018).

target: PI 3-kinase beta (Homo sapiens (Human), UniProt P42338); experiment: Cellular p-Akt (S473) SureFire assay, Rat-1_PI3Kbeta cells (Assay I); type: cell-based; conditions: p-AKT (Ser473) in Rat-1 cells expressing myr-HA-hp110 beta, 1 h compound; read-out: Assay I PI3Kβ IC50
Excerpt: Cellular Assays for PI 3-Kinase Alpha (H), Beta (I) and Delta (J)
AlphaScreen (Amplified Luminescent Proximity Homogeneous Assay, ALPHA, Perkin Elmer) is a non-radioactive bead-based proximity assay technology to study biomolecular interactions in a homogenous microtiter plate format. The brand name SureFire denotes AlphaScreen assays that are adapted to quantify the phosphorylation of endogenous cellular proteins in cell lysates, by using matched antibody pairs, which consist of an anti-phospho-kinase and an anti-kinase antibody. The assay allows characterization of kinase signaling in cells as well as measurement of kinase inhibitor effects.
Rat-1 cell lines stably overexpressing activated PI 3-kinase class I isoforms Rat-1 pBABEpuro Myr-HA-hp110 delta clone 5 (Rat-1_PI3Kdelta) and Rat-1 pBABEpuro Myr-HA-hp110 alpha clone 6 (Rat-1_PI3Kalpha) and Rat-1 pBABEpuro Myr-HA-hp110 beta (Rat-1_PI3beta) were cultivated in complete growth medium (DMEM high glucose, 10% (v/v) fetal bovine serum, 1% (v/v) MEM NEAA, 10 mM HEPES, 2 mM L-glutamine, puromycin (10 μg/mL for Rat-1_PI3Kdelta and Rat-1_PI3Kalpha, 4 ug/mL for Rat-1_PI3beta), 1% (v/v) Pen/Strep) to 90% confluency at 37° C./5% CO2/90% humidity in a humidified CO2 incubator and were split twice a week. The following materials were used for p-AKT(5473) detection in Rat-1 cell lysates: Dulbecco's modified Eagle's medium (DMEM) high glucose (Gibco Invitrogen, Basel, Switzerland, Cat. No. 41965), heat inactivated fetal bovine serum, qualified (HI FBS; Gibco Invitrogen, Basel, Switzerland, Lot. No. 16140), MEM non essential amino acids (NEAA; Gibco Invitrogen, Basel, Switzerland, Cat. No. 11140), HEPES (Gibco Invitrogen, Basel, Switzerland, Cat. No. 15630), penicillin/streptomycin (Pen/Strep, 100×; Gibco Invitrogen, Basel, Switzerland, Cat. No. 15140-122), L-glutamine (Gibco Invitrogen, Basel, Switzerland, Cat. No. 25030), puromycin (Sigma Aldrich, Buchs, Switzerland, Cat. No. P9620), DMSO (MERCK, Dietikon, Switzerland, Cat. No. 8.02912.2500), H2O, MilliQ-H2O unless otherwise stated (MILLIPORE QGARDOOR1, Millipore, Zug, Switzerland), bovine serum albumine (BSA; Sigma Aldrich, Buchs, Switzerland Cat. No. A8412), SureFire p-Akt 1/2 (Ser473) Assay Kit (Perkin Elmer, Schwerzenbach, Switzerland, Cat. No. TGRAS50K).
The p-Akt (S473) SureFire assay measures the phosphorylation of endogenous cellular Akt 1/2 at Ser473 in cell lysates. Using Rat-1 cells stably expressing myr-HA-tagged versions of the human PI3Kdelta, PI3Kalpha, or PI3Kbeta p110 catalytic subunit isoforms, the assay was developed as a two-plate protocol in a 384-well format.
For compound testing, the cells were seeded at a density of 4000 (Rat-1_PI3Kdelta), 7500 (Rat-1_PI3Kalpha), or 6200 (Rat-1_PI3Kbeta) cells in 20 μl complete growth medium into cell culture treated 384-well plates and were grown at 37° C./5% CO2/90% humidity for 24 h. Shortly before compound transfer, the complete medium was removed, 30 μl assay buffer (DMEM high glucose, 1×MEM NEAA, 10 mM HEPES, 2 mM L-glutamine, 0.1% (w/v) BSA) was added and 10 μl of the compound predilutions were transferred to the cells. After treatment with compound for 1 h, the cells were lysed by the addition of 20 μl lysis buffer supplemented with 0.24% (w/v) BSA. Detection of p-AKT (Ser473) was performed with the SureFire p-Akt 1/2 (Ser473) Assay Kit according to the manufacturer's instructions using 5 ul of cell lysate in a total detection volume of 12 μl.
IC50 values of the percentage inhibition of each compound at 8 concentrations (usually 10, 3.0, 1.0, 0.3, 0.1, 0.030, 0.010 and 0.003 μM) n=2 were derived by fitting a sigmoidal dose-response curve to a plot of assay readout over inhibitor concentration as described. All fits were performed with the program XLfit4 (ID Business Solutions, Guildford, UK).

PI 3-kinase beta, sequence (P42338 whole entry): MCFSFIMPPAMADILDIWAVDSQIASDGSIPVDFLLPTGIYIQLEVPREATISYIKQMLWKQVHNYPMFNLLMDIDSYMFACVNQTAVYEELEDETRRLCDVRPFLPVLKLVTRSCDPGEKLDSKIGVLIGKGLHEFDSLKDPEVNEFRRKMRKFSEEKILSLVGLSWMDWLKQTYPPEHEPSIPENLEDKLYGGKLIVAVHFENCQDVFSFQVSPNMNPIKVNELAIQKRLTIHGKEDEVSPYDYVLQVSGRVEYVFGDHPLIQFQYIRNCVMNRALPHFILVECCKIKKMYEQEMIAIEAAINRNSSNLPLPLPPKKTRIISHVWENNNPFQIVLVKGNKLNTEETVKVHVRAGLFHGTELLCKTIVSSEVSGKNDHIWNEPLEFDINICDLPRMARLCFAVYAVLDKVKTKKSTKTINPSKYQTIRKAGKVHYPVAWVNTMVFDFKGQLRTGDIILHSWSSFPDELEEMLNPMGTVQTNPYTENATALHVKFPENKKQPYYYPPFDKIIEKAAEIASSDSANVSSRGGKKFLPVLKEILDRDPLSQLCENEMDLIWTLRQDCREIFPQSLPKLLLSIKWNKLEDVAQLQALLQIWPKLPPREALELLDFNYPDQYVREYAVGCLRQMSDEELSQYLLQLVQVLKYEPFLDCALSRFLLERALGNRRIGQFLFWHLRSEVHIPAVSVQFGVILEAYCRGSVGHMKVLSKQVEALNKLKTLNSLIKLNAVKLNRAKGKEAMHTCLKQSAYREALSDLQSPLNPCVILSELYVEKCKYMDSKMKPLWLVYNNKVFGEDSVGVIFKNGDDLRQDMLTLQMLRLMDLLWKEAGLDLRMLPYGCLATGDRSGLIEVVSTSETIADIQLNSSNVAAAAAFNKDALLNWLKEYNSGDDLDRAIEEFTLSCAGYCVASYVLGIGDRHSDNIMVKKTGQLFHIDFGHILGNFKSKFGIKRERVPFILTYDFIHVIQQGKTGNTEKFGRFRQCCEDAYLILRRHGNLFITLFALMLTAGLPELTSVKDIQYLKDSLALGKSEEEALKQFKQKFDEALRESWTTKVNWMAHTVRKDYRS
PI 3-kinase beta, sequence (Q63787 whole entry partner): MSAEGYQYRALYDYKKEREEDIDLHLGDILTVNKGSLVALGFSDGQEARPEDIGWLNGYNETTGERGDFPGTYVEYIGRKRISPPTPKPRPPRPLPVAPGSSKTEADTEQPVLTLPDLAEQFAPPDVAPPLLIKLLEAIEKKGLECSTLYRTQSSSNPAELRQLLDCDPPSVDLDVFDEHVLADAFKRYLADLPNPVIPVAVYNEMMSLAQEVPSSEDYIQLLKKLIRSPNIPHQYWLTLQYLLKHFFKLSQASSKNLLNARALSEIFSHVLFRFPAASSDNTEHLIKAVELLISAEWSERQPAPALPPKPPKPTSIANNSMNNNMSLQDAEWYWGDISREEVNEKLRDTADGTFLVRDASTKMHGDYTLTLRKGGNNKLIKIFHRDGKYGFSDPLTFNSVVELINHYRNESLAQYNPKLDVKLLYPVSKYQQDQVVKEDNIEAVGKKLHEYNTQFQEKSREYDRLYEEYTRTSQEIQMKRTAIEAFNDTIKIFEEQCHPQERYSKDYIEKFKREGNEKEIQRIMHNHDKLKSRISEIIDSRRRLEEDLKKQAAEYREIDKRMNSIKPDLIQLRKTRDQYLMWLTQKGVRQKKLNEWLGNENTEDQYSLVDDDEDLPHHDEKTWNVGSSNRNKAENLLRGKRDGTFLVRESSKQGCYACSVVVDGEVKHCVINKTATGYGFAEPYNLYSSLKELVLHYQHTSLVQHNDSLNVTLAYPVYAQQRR

Row | SMILES | IC50
1 | Cc1ncc(-c2cncc(-c3cc(S(=O)(=O)N[C@H]4CC[C@H](O)CC4)ccc3C)n2)s1 [Example 5, Trans N-(4-Hydroxycyclohexyl)-4-methyl-3-(6-(2-methylthiazol-5-yl)pyrazin-2-yl)benzenesulfonamide] | 9.42 µM
2 | Cc1ccc(S(=O)(=O)N[C@H]2CC[C@H](O)CC2)cc1-c1cncc(-c2cccnc2)n1 [Example 11, Trans N-(4-Hydroxy-cyclohexyl)-4-methyl-3-(6-pyridin-3-yl-pyrazin-2-yl)-benzenesulfonamide] | > 10 µM
3 | Cc1ccc(S(=O)(=O)NCCC(C)(C)O)cc1-c1cncc(-c2cn(CCN3CCOCC3)nc2C)n1 [Example 10, N-(3-Hydroxy-3-methyl-butyl)-4-methyl-3-{6-[3-methyl-1-(2-morpholin-4-yl-ethyl)-1H-pyrazol-4-yl]-pyrazin-2-yl}-benzenesulfonamide] | 3.83 µM
4 | Cc1ccc(S(=O)(=O)NCCC(C)(C)O)cc1-c1cncc(-c2cnn(CCN3CCOCC3)c2)n1 [Example 9, N-(3-Hydroxy-3-methyl-butyl)-4-methyl-3-{6-[1-(2-morpholin-4-yl-ethyl)-1H-pyrazol-4-yl]-pyrazin-2-yl}-benzenesulfonamide] | 6.98 µM

The next molecules have a lower IC50 than those just listed; values first:

Row | IC50 | SMILES
5 | 3.18 µM | Cc1ccc(S(=O)(=O)NCCC(C)(C)O)cc1-c1cncc(-c2cn(C)nc2C)n1 [Example 3, 3-[6-(1,3-Dimethyl-1H-pyrazol-4-yl)-pyrazin-2-yl]-N-(3-hydroxy-3-methyl-butyl)-4-methyl-benzenesulfonamide]
6 | 0.833 µM | Cc1ccc(S(=O)(=O)NCC2(C)COC2)cc1-c1cncc(-c2cn(C)nc2C)n1 [Example 4, Trans 3-[6-(1,3-Dimethyl-1H-pyrazol-4-yl)-pyrazin-2-yl]-4-methyl-N-(3-methyl-oxetan-3-ylmethyl)-benzenesulfonamide]
7 | 0.784 µM | Cc1ccc(S(=O)(=O)NCC(C)(C)O)cc1-c1cncc(-c2cn(C)nc2C)n1 [Example 2, 3-[6-(1,3-Dimethyl-1H-pyrazol-4-yl)-pyrazin-2-yl]-N-(2-hydroxy-2-methyl-propyl)-4-methyl-benzenesulfonamide]
